Measured values from article PMC6935173, “Characterization of a vacuolar sucrose transporter, HbSUT5, from Hevea brasiliensis: involvement in latex production through regulation of intracellular sucrose transport in the bark and laticifers” (BMC Plant Biology, 2019).
Each block holds one molecule with its values, some of them ahead of it.

Legend:
HbSUT5 = target: T1, HbSUT5 (Hevea brasiliensis, UniProt A0T058); assay: competition with […]-sucrose uptake in yeast SEY6210; assay type: cell-based
T1 construct: gene SUT5; ORF primers give start MAIPQ
T1 sequence (A0T058 1-498): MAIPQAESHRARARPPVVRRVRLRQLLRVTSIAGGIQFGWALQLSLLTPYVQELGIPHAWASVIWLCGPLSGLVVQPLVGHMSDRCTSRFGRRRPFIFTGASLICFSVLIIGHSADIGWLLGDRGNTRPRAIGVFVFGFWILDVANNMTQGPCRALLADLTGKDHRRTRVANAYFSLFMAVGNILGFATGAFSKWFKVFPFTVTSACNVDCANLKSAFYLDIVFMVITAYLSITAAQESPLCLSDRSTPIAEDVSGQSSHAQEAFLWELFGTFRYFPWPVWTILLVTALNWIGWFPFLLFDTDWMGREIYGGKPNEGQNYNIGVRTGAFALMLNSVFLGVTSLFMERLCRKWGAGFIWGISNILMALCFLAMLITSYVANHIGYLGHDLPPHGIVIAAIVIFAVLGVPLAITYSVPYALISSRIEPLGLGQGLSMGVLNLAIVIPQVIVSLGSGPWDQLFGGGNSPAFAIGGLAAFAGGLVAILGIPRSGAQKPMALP

[1] = substrate: OC[C@H]1O[C@@](CO)(O[C@H]2O[C@H](CO)[C@@H](O)[C@H](O)[C@H]2O)[C@@H](O)[C@@H]1O; assay: cells, lysate or membranes; assay type: cell-based, Hevea brasiliensis; settings: pH 5.5, 0.5-8 mM sucrose, labelled compound, H+ symport, whole yeast cells

- activity at 10000 µM (HbSUT5): 44 ± 3.4%
Molecule: OC[C@H]1O[C@H](O[C@H]2[C@H](O)[C@@H](O)C(O)O[C@@H]2CO)[C@H](O)[C@@H](O)[C@@H]1O (some centres unmarked) [Maltose]

B1: HbSUT5 (Hevea brasiliensis) (protein)
chain: T1 sequence (A0T058 1-498)
notes: ORF primers give start MAIPQ
- Km [1]: 2030 µM
